Measured values reported in PubChem BioAssay (NCI).
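GI50 marks 50% less growth. TGI denotes the concentration required for complete inhibition of growth.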

Legend:
Assay in all cases: inhibition of tumour cell growth, NCI panel, 384-well format
MOLT-4 leukemia = test system: MOLT-4 leukemia
A498 renal = test system: A498 renal
SK-MEL-5 melanoma = test system: SK-MEL-5 melanoma
CCRF-CEM leukemia = test system: CCRF-CEM leukemia
KM12 colon = test system: KM12 colon
SF-268 CNS = test system: SF-268 CNS
RXF 393 renal = test system: RXF 393 renal
SK-OV-3 ovarian = test system: SK-OV-3 ovarian
NCI-H522 lung = test system: NCI-H522 lung
DU-145 prostate = test system: DU-145 prostate
MDA-MB-468 breast = test system: MDA-MB-468 breast
SF-539 CNS = test system: SF-539 CNS
786-0 renal = test system: 786-0 renal
COLO 205 colon = test system: COLO 205 colon
MDA-MB-231 breast = test system: MDA-MB-231 breast
HCT-15 colon = test system: HCT-15 colon
HL-60(TB) leukemia = test system: HL-60(TB) leukemia
UO-31 renal = test system: UO-31 renal
SF-295 CNS = test system: SF-295 CNS
RPMI-8226 leukemia = test system: RPMI-8226 leukemia
HCT-116 colon = test system: HCT-116 colon
M14 melanoma = test system: M14 melanoma
SN12C renal = test system: SN12C renal
BT-549 breast = test system: BT-549 breast
NCI-H460 NSCLC = test system: NCI-H460 NSCLC
CAKI-1 renal = test system: CAKI-1 renal
SK-MEL-28 melanoma = test system: SK-MEL-28 melanoma
OVCAR-8 ovarian = test system: OVCAR-8 ovarian
TK-10 renal = test system: TK-10 renal

Compound `C=CC(=O)N1CCN(c2nc(=O)n(-c3c(C)ccnc3C(C)C)c3nc(-c4c(O)cccc4F)c(F)cc23)[C@@H](C)C1` has a GI50 (MOLT-4 leukemia) of 9.94 µM, a TGI (MOLT-4 leukemia) of 22.2 µM and a GI50 (A498 renal) of 31.1 µM. It also gave a TGI (A498 renal) greater than 82.8 µM, a GI50 (SK-MEL-5 melanoma) of 21.6 µM and a TGI (SK-MEL-5 melanoma) of 46.5 µM. For the same compound, the GI50 (CCRF-CEM leukemia) was 18.8 µM, the TGI (CCRF-CEM leukemia) was 34.2 µM and the GI50 (KM12 colon) was 31.5 µM. For the same compound, the TGI (KM12 colon) was greater than 75.8 µM, the GI50 (SF-268 CNS) was 27.8 µM and the TGI (SF-268 CNS) was 79.8 µM. The GI50 (RXF 393 renal) was 4.34 µM, the TGI (RXF 393 renal) was 14.3 µM and the GI50 (SK-OV-3 ovarian) was 46.5 µM. The TGI (SK-OV-3 ovarian) was greater than 100 µM, the GI50 (NCI-H522 lung) was 21.1 µM and the TGI (NCI-H522 lung) was 43.2 µM. The GI50 (DU-145 prostate) was 25.3 µM, the TGI (DU-145 prostate) was 74.7 µM and the GI50 (MDA-MB-468 breast) was 13 µM. For the same compound, the TGI (MDA-MB-468 breast) was 37.2 µM, the GI50 (SF-539 CNS) was 17.4 µM and the TGI (SF-539 CNS) was 33.3 µM. For the same compound, the GI50 (786-0 renal) was 21.4 µM, the TGI (786-0 renal) was 44.4 µM and the GI50 (COLO 205 colon) was 24.7 µM. The TGI (COLO 205 colon) was 58.8 µM, the GI50 (MDA-MB-231 breast) was 24.3 µM and the TGI (MDA-MB-231 breast) was 57 µM. For the same compound, the GI50 (HCT-15 colon) was 27.2 µM, the TGI (HCT-15 colon) was greater than 65.3 µM and the GI50 (HL-60(TB) leukemia) was 19.8 µM. It also gave a TGI (HL-60(TB) leukemia) of 35.5 µM, a GI50 (UO-31 renal) of 69.7 µM and a TGI (UO-31 renal) greater than 100 µM. The GI50 (SF-295 CNS) was 33.4 µM, the TGI (SF-295 CNS) was greater than 88.3 µM and the GI50 (RPMI-8226 leukemia) was 16.6 µM. For the same compound, the TGI (RPMI-8226 leukemia) was 32.5 µM, the GI50 (HCT-116 colon) was 17.5 µM and the TGI (HCT-116 colon) was 35.6 µM. It also gave a GI50 (M14 melanoma) of 32.1 µM, a TGI (M14 melanoma) greater than 79.9 µM and a GI50 (SN12C renal) of 50.3 µM. For the same compound, the TGI (SN12C renal) was greater than 100 µM, the GI50 (BT-549 breast) was 15.7 µM and the TGI (BT-549 breast) was 35.2 µM. The GI50 (NCI-H460 NSCLC) was 28.2 µM, the TGI (NCI-H460 NSCLC) was 65.4 µM and the GI50 (CAKI-1 renal) was 30.9 µM. The TGI (CAKI-1 renal) was greater than 89.7 µM, the GI50 (SK-MEL-28 melanoma) was greater than 100 µM and the TGI (SK-MEL-28 melanoma) was greater than 100 µM. The GI50 (OVCAR-8 ovarian) was 19.7 µM, the TGI (OVCAR-8 ovarian) was 36.6 µM and the GI50 (TK-10 renal) was 46.2 µM.
